Results: patent US10941114B2, “Small molecule lipid II inhibitors” (University Of Maryland, Baltimore, priority 2015, dated 2021)
Structures can show the parent of a compound that is named as a salt.

Assays:
Staphylococcus aureus = test: Antibacterial activity assay (MIC, broth dilution); format: cell-based; set-up: S. aureus Killing / Bacterial Killing S. aureus: unit not given here; details: for MIC SA USA300: Staphylococcus aureus USA 300 strain, broth microdilution; for MIC: Staphylococcus aureus, Table 21, read-out: Staphylococcus aureus MIC; for S. aureus Killing: anti-bacterial activity (MIC), strain not stated
Enterococcus faecalis = test: Antibacterial activity assay (MIC, broth dilution); format: cell-based; details: for MIC EF 15951: Enterococcus faecalis 15951, broth microdilution; for MIC: Enterococcus faecalis, Table 21, read-out: Escherichia feacalis MIC

CN(C)c1ccc(/C=C/c2cc(-c3ccc(Cl)cc3)cc(-c3ccc(Br)cc3)[n+]2C)cc1.[I-] [Compound 2jc43-3, (E)-2-(4-bromophenyl)-4-(4-chlorophenyl)-6-(4-(dimethylamino)styryl)-1-methylpyridin-1-ium iodide salt]
MIC SA USA300 (Staphylococcus aureus): 2 µg/mL
MIC EF 15951 (Enterococcus faecalis): 2 µg/mL

CN(C)c1ccc(/C=C/c2cc(-c3ccc(N(C)C)cc3)cc(-c3ccc(Br)cc3)[n+]2C)cc1.[I-] [Compound 3jc01-3, (E)-2-(4-bromophenyl)-4-(4-(dimethylamino)phenyl)-6-(4-(dimethylamino)styryl)-1-methylpyridin-1-ium iodide salt]
MIC SA USA300 (Staphylococcus aureus): 1 µg/mL
MIC EF 15951 (Enterococcus faecalis): 1 µg/mL

CN(CCC#N)c1ccc(/C=C/c2cc(-c3ccc(F)c(F)c3)cc(-c3ccc(F)c(F)c3)[o+]2)cc1.F[B-](F)(F)F
MIC (Staphylococcus aureus): > 64 µg/mL
MIC (Enterococcus faecalis): > 64 µg/mL

CN(CCC#N)c1ccc(/C=C/c2cc(-c3ccc(Cl)cc3)cc(-c3ccc(Br)cc3)[n+]2C)cc1.[I-] [Compound 2jc43-4, (E)-2-(4-bromophenyl)-4-(4-chlorophenyl)-6-(4-((2-cyanoethyl)(methyl)amino)styryl)-1-methylpyridin-1-ium iodide salt]
MIC SA USA300 (Staphylococcus aureus): 32 µg/mL
MIC EF 15951 (Enterococcus faecalis): 16 µg/mL

CN(C)c1ccc(/C=C/c2cc(-c3ccc(N(C)CCC#N)cc3)cc(-c3ccc(Br)cc3)[n+]2C)cc1.[I-] [Compound 3jc01-7]
MIC SA USA300 (Staphylococcus aureus): 1 µg/mL
MIC EF 15951 (Enterococcus faecalis): 2 µg/mL

CN(C)c1ccc(-c2cc(/C=C/c3ccc(N(C)CCC#N)cc3)[n+](C)c(-c3ccc(Br)cc3)c2)cc1.[I-] [Compound 3jc01-4, (E)-2-(4-bromophenyl)-6-(4-((2-cyanoethyl)(methyl)amino)styryl)-4-(4-(dimethylamino)phenyl)-1-methylpyridin-1-ium iodide salt]
MIC SA USA300 (Staphylococcus aureus): 32 µg/mL
MIC EF 15951 (Enterococcus faecalis): 32 µg/mL

CN(CCC#N)c1ccc(/C=C/c2cc(-c3ccc(N(C)CCC#N)cc3)cc(-c3ccc(Br)cc3)[n+]2C)cc1.[I-] [Compound 3jc01-8]
MIC SA USA300 (Staphylococcus aureus): 1 µg/mL
MIC EF 15951 (Enterococcus faecalis): 2 µg/mL

CCN(CCC#N)c1ccc(/C=C/c2cc(-c3ccc(F)cc3)cc(-c3ccc(F)cc3)[o+]2)c(C)c1.F[B-](F)(F)F
MIC (Staphylococcus aureus): > 64 µg/mL
MIC (Enterococcus faecalis): > 64 µg/mL

Cc1ccc(-c2cc(/C=C/c3ccc(N(C)CCC#N)cc3)[o+]c(-c3ccc(C)cc3)c2)cc1.F[B-](F)(F)F
MIC (Staphylococcus aureus): > 64 µg/mL
MIC (Enterococcus faecalis): > 64 µg/mL

CN(CCC#N)c1ccc(/C=C/c2cc(-c3ccc(F)cc3)cc(-c3ccc(Br)cc3)[n+]2C)cc1.[I-] [Compound 2jc39-4]
MIC SA USA300 (Staphylococcus aureus): 16 µg/mL
MIC EF 15951 (Enterococcus faecalis): 16 µg/mL

CN(CCC#N)c1ccc(/C=C/c2cc(-c3ccc(F)cc3)cc(-c3ccc(F)cc3)[o+]2)cc1.F[B-](F)(F)F [drawing 385]
MIC (Staphylococcus aureus): > 64 µg/mL
MIC (Enterococcus faecalis): > 64 µg/mL

CN(CCC#N)c1ccc(/C=C/c2cc(-c3ccc(F)cc3)cc(-c3ccc(F)cc3)[n+]2C)cc1.[I-] [Compound 2jc39-2, (E)-2-(4-((2-cyanoethyl)(methyl)amino)styryl)-4,6-bis(4-fluorophenyl)-1-methylpyridin-1-ium iodide salt]
MIC SA USA300 (Staphylococcus aureus): 16 µg/mL
MIC EF 15951 (Enterococcus faecalis): 16 µg/mL

CN(CCC#N)c1ccc(/C=C/c2cc(-c3ccc(Cl)cc3)cc(-c3ccc(F)cc3)[n+]2C)cc1.[I-] [Compound 2jc43-2, (E)-4-(4-chlorophenyl)-2-(4-((2-cyanoethyl)(methyl)amino)styryl)-6-(4-fluorophenyl)-1-methylpyridin-1-ium iodide salt]
MIC SA USA300 (Staphylococcus aureus): 2 µg/mL
MIC EF 15951 (Enterococcus faecalis): 2 µg/mL

CN(C)c1ccc(/C=C/c2cc(-c3ccc(F)cc3)cc(-c3ccc(Br)cc3)[n+]2C)cc1.[I-] [Compound 2jc39-3, (E)-2-(4-bromophenyl)-6-(4-(dimethylamino)styryl)-4-(4-fluorophenyl)-1-methylpyridin-1-ium iodide salt]
MIC SA USA300 (Staphylococcus aureus): 4 µg/mL
MIC EF 15951 (Enterococcus faecalis): 4 µg/mL

CN(C)c1ccc(/C=C/c2cc(-c3ccc(F)c(F)c3)cc(-c3ccc(F)c(F)c3)[o+]2)cc1.F[B-](F)(F)F
MIC (Staphylococcus aureus): > 64 µg/mL
MIC (Enterococcus faecalis): > 64 µg/mL

CN(C)c1ccc(/C=C/c2cc(-c3ccc(F)cc3)cc(-c3ccc(F)cc3)[n+]2C)cc1.[I-] [Compound 2jc39-1, (E)-2-(4-(dimethylamino)styryl)-4,6-bis(4-fluorophenyl)-1-methylpyridin-1-ium iodide salt]
MIC SA USA300 (Staphylococcus aureus): 4 µg/mL
MIC EF 15951 (Enterococcus faecalis): 4 µg/mL

(E)-4-(4-((2-cyanoethyl)(methyl)amino)phenyl)-2-(4-(dimethylamino)styryl)-6-(4-fluorophenyl)-1-methylpyridin-1-ium iodide salt [Compound 3jc01-5]
MIC SA USA300 (Staphylococcus aureus): 1 µg/mL
MIC EF 15951 (Enterococcus faecalis): 4 µg/mL

CN(CCC#N)c1ccc(/C=C/c2cc(-c3ccc(Br)cc3)cc(-c3ccc(Br)cc3)[o+]2)cc1.F[B-](F)(F)F
MIC (Staphylococcus aureus): > 64 µg/mL
MIC (Enterococcus faecalis): > 64 µg/mL

CN(CCC#N)c1ccc(/C=C/c2cc(-c3ccc(N(C)CCC#N)cc3)cc(-c3ccc(F)cc3)[n+]2C)cc1.[I-] [Compound 3jc01-6, (E)-4-(4-((2-cyanoethyl)(methyl)amino)phenyl)-2-(4-((2-cyanoethyl)(methyl)amino)styryl)-6-(4-fluorophenyl)-1-methylpyridin-1-ium iodide salt]
MIC SA USA300 (Staphylococcus aureus): 1 µg/mL
MIC EF 15951 (Enterococcus faecalis): 8 µg/mL

CN(C)c1ccc(/C=C/c2cc(-c3ccc(N(C)C)cc3)cc(-c3ccc(F)cc3)[n+]2C)cc1.[I-] [Compound 3jc01-1, (E)-4-(4-(dimethylamino)phenyl)-2-(4-(dimethylamino)styryl)-6-(4-fluorophenyl)-1-methylpyridin-1-ium iodide salt]
MIC SA USA300 (Staphylococcus aureus): 2 µg/mL
MIC EF 15951 (Enterococcus faecalis): 1 µg/mL

CN(C)c1ccc(/C=C/c2cc(-c3ccc(Cl)cc3)cc(-c3ccc(F)cc3)[n+]2C)cc1.[I-] [Compound 2jc43-1, (E)-4-(4-chlorophenyl)-2-(4-(dimethylamino)styryl)-6-(4-fluorophenyl)-1-methylpyridin-1-ium iodide salt]
MIC SA USA300 (Staphylococcus aureus): 4 µg/mL
MIC EF 15951 (Enterococcus faecalis): 2 µg/mL

CCN(CCC#N)c1ccc(/C=C/c2cc(-c3ccc(Br)cc3)cc(-c3ccc(Br)cc3)[o+]2)c(C)c1.F[B-](F)(F)F
MIC (Staphylococcus aureus): > 64 µg/mL
MIC (Enterococcus faecalis): > 64 µg/mL

CN(CCC#N)c1ccc(/C=C/c2cc(-c3ccc(C(C)(C)C)cc3)cc(-c3ccc(C(C)(C)C)cc3)[o+]2)cc1.F[B-](F)(F)F
MIC (Staphylococcus aureus): > 64 µg/mL
MIC (Enterococcus faecalis): > 64 µg/mL

CN(CCC#N)c1ccc(/C=C/c2cc(-c3ccccc3)cc(-c3ccccc3)[o+]2)cc1.F[B-](F)(F)F
MIC (Staphylococcus aureus): > 64 µg/mL
MIC (Enterococcus faecalis): > 64 µg/mL

CN(CCC#N)c1ccc(/C=C/c2cc(-c3ccc(C(F)(F)F)cc3)cc(-c3ccc(C(F)(F)F)cc3)[o+]2)cc1.F[B-](F)(F)F
MIC (Staphylococcus aureus): > 64 µg/mL
MIC (Enterococcus faecalis): > 64 µg/mL

CN1/C(=C/C=C/c2cc(-c3ccccc3)cc(-c3ccccc3)[o+]2)C(C)(C)c2ccccc21 [drawing 116, 2,4-diphenyl~6-((1E,3E)-3-(1,3,3-trimethylindolin-2-ylidene)prop-1-en-1-yl)pyrylium boron tetrafluoride salt]
S. aureus Killing (Staphylococcus aureus): 0.5

CN(C)c1ccc(/C=C/c2cc(-c3ccc(C(C)(C)C)cc3)cc(-c3ccc(C(C)(C)C)cc3)[o+]2)cc1 [(E)-2,4-bis(4-(tert-butyl)phenyl)-6-(4-(dimethylamino)styryl)pyrylium boron tetrafluoride salt]
S. aureus Killing (Staphylococcus aureus): 8

CN(C)c1ccc(/C=C/C=C/c2cc(-c3ccc(Br)cc3)cc(-c3ccc(Br)cc3)[o+]2)cc1 [2,4-bis(4-bromophenyi)-6-((1E,3E)-4-(4-(dimetliylamino)phenyl)buta-1,3-dien-1-yl)pyrylium boron tetrafluoride salt]
S. aureus Killing (Staphylococcus aureus): >64

CN(C)c1ccc(/C=C/c2cc(-c3ccc(I)cc3)cc(-c3ccc(I)cc3)[o+]2)cc1.F[B-](F)(F)F
MIC (Staphylococcus aureus): > 64 µg/mL
MIC (Enterococcus faecalis): > 64 µg/mL

CN(C)c1ccc(/C=C/c2cc(-c3ccccc3)cc(-c3ccccc3)[o+]2)cc1 [(E)-2-(4-(dimethylamino)styryl)-4,6-diphenylpyrylium boron tetrafluoride salt]
S. aureus Killing (Staphylococcus aureus): 2

Cc1cc(-c2ccccc2)cc(-c2ccccc2)[o+]1 [2-methy1-4,6-diphenylpyrylium boron tetrafluoride salt]
S. aureus Killing (Staphylococcus aureus): >64

CCCN1CCCc2cc(/C=C/c3cc(-c4ccc(F)cc4)cc(-c4ccc(F)cc4)[o+]3)ccc21.F[B-](F)(F)F
MIC (Staphylococcus aureus): > 64 µg/mL
MIC (Enterococcus faecalis): > 64 µg/mL

CN(C)c1ccc(-c2cc(/C=C/c3ccc(N(C)CCC#N)cc3)[n+](C)c(-c3ccc(F)cc3)c2)cc1.[I-] [Compound 3jc01-2, (E)-2-(4-((2-cyanoethyl)(methyl)amino)styryl)-4-(4-(dimethylamino)phenyl)-6-(4-fluorophenyl)-1-methylpyridin-1-ium iodide salt]
MIC SA USA300 (Staphylococcus aureus): 32 µg/mL
MIC EF 15951 (Enterococcus faecalis): 16 µg/mL

Cc1ccc(-c2cc(/C=C/c3cn(C)c4ccccc34)[o+]c(-c3ccc(C)c(C)c3)c2)cc1C [(E)-2,4-bis(3,4-dimethylphenyl)-6-(2-(1-methyl-1H-indol-3-yl)vinyl)pyrylium boron tetrafluoride salt]
S. aureus Killing (Staphylococcus aureus): 1

CCc1ccc(-c2cc(/C=C/c3ccc(N(C)C)cc3)[o+]c(-c3ccc(CC)cc3)c2)cc1 [(E)-2-(4-(dimethylamino)styryl)-4,6-bis(4-ethylphenyl) pyryliurn boron tetrafluoride salt]
S. aureus Killing (Staphylococcus aureus): 1

Cc1ccc(-c2cc(/C=C/C=C/c3ccc(N(C)C)cc3)[o+]c(-c3ccc(C)cc3)c2)cc1 [2-((1E,3E)-4-(4-(dimethylamino)phenyl)buta-1,3-dien-1-yl)-4,6-di-p-tolylpyrylium boron tetrafluoride salt]
S. aureus Killing (Staphylococcus aureus): 2

Cc1ccc(-c2cc(/C=C/c3ccc(N(C)C)cc3)[o+]c(-c3ccc(C)cc3)c2)cc1 [(E)-2-(4-(dimethylamino)styryl)-4,6-di-p-tolylpyrylium boron tetrafluoride salt]
S. aureus Killing (Staphylococcus aureus): 0.5

Cc1ccc(-c2cc(/C=C/c3c[nH]c4ccccc34)[o+]c(-c3ccc(C)c(C)c3)c2)cc1C [(E)-2-(2-(1H-indol-3-yl)vinyl)-4,6-bis(3,4-dimethylphenyl) pyrylium boron tetrafluoride salt]
S. aureus Killing (Staphylococcus aureus): 4

CCCN1CCCc2cc(/C=C/c3cc(-c4ccc(Br)cc4)cc(-c4ccc(Br)cc4)[o+]3)ccc21.F[B-](F)(F)F
MIC (Staphylococcus aureus): > 64 µg/mL
MIC (Enterococcus faecalis): > 64 µg/mL
